Measured values as given in patent publication US8518958B2, “Pyrido [2,3-D] pyrimidines and their use as kinase inhibitors” (Forma Therapeutics, Inc., priority 2006, dated 2013).

What was measured:
[1] = target: C-Raf Raf-1 (truncated), active (Homo sapiens, UniProt P04049, Y340D/Y341D); assay: C-Raf kinase inhibition (MAPH assay / IMAP assay); conditions: read-out: Biochemical IC50 C-Raf
Excerpt: We characterized the in vitro inhibitory activity against protein kinases of compounds of the present invention by determining their IC50 values (see Table 2).
Kinase: C-Raf Raf-1 (truncated), active (Upstate; cat. no. 14-352)
Reaction Temperature: room temperature
Assay Plate: 96 well U bottom plate (Greiner, 650161)
MultiScreen-PH Plate: 96 well MAPH Filter Plates (Millipore, MAPHNOB50)
Filter Washing Solution: 0.75% H3PO4
Scintillation Liquid: Supermix Liquid Scintillator (PerkinElmer, 1200-439)
Negative Control (C−): 100 mM EDTA, no inhibitor
Positive Control (C+): no inhibitor
Reaction Buffer (Final Concentration):
Final Assay Concentrations:
Kinase: Use kinase conc. yielding 10% ATP turnover as determined in titration experiment.
Adenosine 5′-[γ-^33P]triphosphate: 12.5 μCi/ml (Amersham Biosciences, BF1000)
Substrate: Myelin Basic Protein 57.8 μM (Invitrogen, 13228-010)
Pipetting Sequence: • 1) Add 10 μl 4-fold concentrated substrate+4-fold concentrated ATP in 3-fold concentrated reaction buffer to each well of assay plate • 2) Add 10 μl […] concentrated inhibitor in 4% DMSO in H2O to each well except to C− and C+ wells (starting point: final inhibitor concentration 10 μM; IC50 determination based on dilution series) • 3) Add 10 μl 4% DMSO in H2O to C− and C+ wells • 4) Add 10 μl 500 mM EDTA in H2O to C− wells • 5) Add 10 μl 50 μCi/ml adenosine 5′-[γ-^33P]triphosphate in H2O to each well • 6) Add 10 μl […] concentrated kinase in Reaction Buffer to each well • 7) Incubate 1 hr at room temperature • 8) Add 10 μl 50 mM EDTA in H2O to each well except to C− wells • 9) Prepare MAPH plates by adding 200 μl 0.75% H3PO4 to each well • 10) Exhaust 0.75% H3PO4 using Millipore vacuum station • 11) Add 60 μl 0.75% H3PO4 to each well of MAPH filter plate • 12) Transfer 30 μl sample per well from assay plate to corresponding well of MAPH filter plate • 13) Incubate 30 min at room temperature • 14) Wash each well of MAPH filter plates 3× with 200 μl 0.75% H3PO4 using Millipore vacuum station • 15) Add 20 μl scintillation liquid to each well of MAPH filter plate • 16) Seal MAPH filter plate • 17) Store MAPH filter plate 30 min in darkness • 18) Quantify radioactivity using scintillation counter (MicroBeta, Perkin-Elmer)
Reaction Volume: 8.0108 μl
IMAP Incubation Time: 60 min
Assay Plate: 384 well U bottom, PP, black, low volume (Corning, 3676)
Compound Plate: 384 well U bottom, PS (Falcon, 3995)
IMAP Binding Buffer A: Molecular Devices, R7282
IMAP Binding Buffer B: Molecular Devices, R7283
IMAP Binding Reagent: Molecular Devices, R7207
Negative Control (C−): no kinase, no inhibitor
Reation buffer: 20 mM Hepes, pH 7.5 • 1 mM DTT • 10 mM MnCl2 • 0.01% Brij35
Kinase: Kinase conc. yielding 50% substrate turnover as determined in titration experiment • c-Raf (Upstate 14-352)
Substrate: 5F1-SGQLIDSMANSFV-NH2 400 nM (jpt Peptide Technologies GmbH, Berlin, Germany)
IMAP Binding Solution: 75% IMAP Binding Buffer A • 25% IMAP Binding Buffer B • IMAP Binding Reagent 1:800
Pipetting Sequence: • 1) Add 6 μl 1.33-fold concentrated substrate+1.33-fold concentrated ATP in 1-fold concentrated reaction buffer to each well of assay plate • 2) Add 10.8 nl 740-fold concentrated inhibitor in 100% DMSO to each well except to C− and C+ wells using pintool (CyBio, Jena, Germany) (starting point: final inhibitor concentration 10 μM; IC50 determination based on dilution series) • 3) Add 10.8 nl 100% DMSO to C− and C+ wells using pintool • 4) Add 2 μl reaction buffer to C− wells • 5) Add 2 μl 4-fold concentrated kinase in reaction buffer to each well except C− wells • 6) Incubate according to reaction time at room temperature • 7) Add 15 μl IMAP binding solution to each well • 8) Incubate according to IMAP incubation time at room temperature • 9) Measure fluorescence polarization (Analyst GT, Molecular Devices)

B-Raf delta1-415 = B-Raf delta1-415 (Homo sapiens, UniProt P15056); assay: B-Raf kinase inhibition (MAPH filter plate, 33P-ATP, MEK1 substrate); conditions: read-out: Biochemical IC50 B-Raf
B-Raf delta1-415, sequence (P15056 416-766): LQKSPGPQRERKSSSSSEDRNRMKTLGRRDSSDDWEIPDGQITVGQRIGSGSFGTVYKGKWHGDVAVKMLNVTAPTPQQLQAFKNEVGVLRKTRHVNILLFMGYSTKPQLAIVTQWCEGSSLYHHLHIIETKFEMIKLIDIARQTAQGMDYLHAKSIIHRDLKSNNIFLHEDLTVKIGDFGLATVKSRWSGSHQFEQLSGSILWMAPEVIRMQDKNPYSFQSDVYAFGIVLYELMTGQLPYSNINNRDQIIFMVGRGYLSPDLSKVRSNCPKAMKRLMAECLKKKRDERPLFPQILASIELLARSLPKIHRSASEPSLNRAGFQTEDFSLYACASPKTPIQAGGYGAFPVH
Procedure, shortened: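 IC50 values come from dilution series (top 10 μM) measured by scintillation counting of 33P-labelled MEK1 retained on H3PO4-washed filters. Reactions ran 1 h at room temperature in pH 7.0 Mops buffer with MgCl2, MnCl2 and DTT, using 12.5 μCi/ml [γ-33P]ATP and B-Raf delta1-415 titrated to 50% turnover.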

HT-29 tumor cells = assay: Anti-proliferative activity, SRB assay; type: cell-based, human; conditions: Homo sapiens, HT-29, 72 h, 72 hours exposure, read-out: CELLULAR IC50 HT-29
Procedure, shortened: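 IC50 derived from % inhibition relative to DMSO controls, measured by sulforhodamine B binding (OD570) after TCA fixation. Cells (3,000-15,000 per well) were seeded a day ahead, then treated with graded compound concentrations for 72 hours.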

C-Raf Raf-1 (truncated), active, sequence (P04049 306-648 Y340D/Y341D): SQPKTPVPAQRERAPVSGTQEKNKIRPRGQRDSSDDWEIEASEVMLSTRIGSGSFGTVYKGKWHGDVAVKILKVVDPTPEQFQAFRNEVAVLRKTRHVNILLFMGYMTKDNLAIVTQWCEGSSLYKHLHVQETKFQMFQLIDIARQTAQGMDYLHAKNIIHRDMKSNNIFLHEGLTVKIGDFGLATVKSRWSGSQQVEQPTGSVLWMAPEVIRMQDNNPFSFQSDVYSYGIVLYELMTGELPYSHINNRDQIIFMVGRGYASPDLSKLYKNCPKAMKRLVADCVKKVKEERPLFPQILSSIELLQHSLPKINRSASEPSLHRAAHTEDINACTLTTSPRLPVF

SMILES | IC50 [1] | IC50 (B-Raf delta1-415) | IC50 (HT-29 tumor cells)
COn1c(=O)c(-c2c(F)cccc2Cl)cc2cnc(Nc3ccc(N4CCN(C)CC4)cc3)nc21 [Compound 25, 6-(2-Chloro-6-fluorophenyl)-8-methoxy-2-(4-(4-methylpiperazino)-phenylamino)-pyrido[2,3-d]pyrimidin-7-one] | < 100 nM | < 100 nM | < 1000 nM
COn1c(=O)c(-c2c(Cl)cccc2Cl)cc2cnc(Nc3cc(CO)ccc3F)nc21 [Compound 27, 6-(2,6-Dichlorophenyl)-2-(2-fluoro-5-(hydroxymethyl)phenylamino)-8-methoxy-pyrido[2,3-d]pyrimidin-7-one] | < 100 nM | > 1000 nM | < 10000 nM
COn1c(=O)c(-c2cccc(NC(=O)c3ccccc3)c2Cl)cc2cnc(Nc3ccccc3)nc21 [Compound 28] | < 100 nM | > 10000 nM | < 1000 nM
COn1c(=O)c(-c2cc(NC(=O)c3ccccc3)ccc2Cl)cc2cnc(Nc3ccccc3)nc21 [Compound 29] | < 100 nM | < 500 nM | < 10000 nM
COn1c(=O)c(-c2c(F)cccc2Cl)cc2cnc(Nc3cccc(S(N)(=O)=O)c3)nc21 [Compound 30, 6-(2-Chloro-6-fluorophenyl)-8-methoxy-2-(3-sulfamoylphenylamino)-pyrido[2,3-d]pyrimidin-7-one] | < 100 nM | < 100 nM | < 1000 nM
COn1c(=O)c(-c2cc(NC(=O)c3cccnc3)ccc2Cl)cc2cnc(Nc3ccccc3)nc21 [Compound 31] | < 100 nM | > 1000 nM | < 10000 nM
COn1c(=O)c(-c2cc(NC(=O)C(C)C)ccc2Cl)cc2cnc(Nc3ccccc3)nc21 [Compound 32] | < 100 nM | > 1000 nM | < 10000 nM
COCCNc1ncc2cc(-c3cc(NC(=O)c4ccccc4)ccc3Cl)c(=O)n(OC)c2n1 [Compound 33] | < 100 nM | < 500 nM | < 10000 nM
NCCCCOn1c(=O)c(-c2c(Cl)cccc2Cl)cc2cnc(Nc3ccccc3)nc21 [Compound 34, 8-(4-Aminobutoxy)-6-(2,6-dichlorophenyl)-2-phenylamino-pyrido[2,3-d]pyrimidin-7-one] | < 100 nM | < 1000 nM | < 1000 nM
COn1c(=O)c(-c2cc(NC(=O)c3cccc(C(F)(F)F)c3)ccc2Cl)cc2cnc(Nc3ccccc3)nc21 [Compound 35] | < 500 nM | > 1000 nM | < 1000 nM
COn1c(=O)c(-c2cc(NC(=O)c3cccc(Cl)c3)ccc2Cl)cc2cnc(Nc3ccccc3)nc21 [Compound 36] | < 100 nM | > 1000 nM | < 10000 nM
COn1c(=O)c(-c2cc(NC(=O)c3ccc(Cl)cc3)ccc2Cl)cc2cnc(Nc3ccccc3)nc21 [Compound 37] | < 100 nM | > 1000 nM | < 10000 nM
COn1c(=O)c(-c2c(C)cccc2C)cc2cnc(Nc3ccc(N4CCN(C)CC4)cc3)nc21 [Compound 38, 6-(2,6-Dimethylphenyl)-8-methoxy-2-(4-(4-methylpiperazino)-phenylamino)-pyrido[2,3-d]pyrimidin-7-one] | < 100 nM | < 100 nM | < 1000 nM
COc1cccc(Cl)c1-c1cc2cnc(Nc3ccc(N4CCN(C)CC4)cc3)nc2n(OC)c1=O [Compound 39, 6-(2-Chloro-6-methoxyphenyl)-8-methoxy-2-(4-(4-methylpiperazino)-phenylamino)-pyrido[2,3-d]pyrimidin-7-one] | < 100 nM | < 500 nM | < 1000 nM
NCCCCOn1c(=O)c(-c2c(Cl)cccc2Cl)cc2cnc(Nc3cccc(S(N)(=O)=O)c3)nc21 [Compound 40, 8-(4-Aminobutoxy)-6-(2,6-dichlorophenyl)-2-(3-sulfamoylphenylamino)-pyrido[2,3-d]pyrimidin-7-one] | < 100 nM | < 100 nM | > 10000 nM
COc1cccc(Nc2ncc3cc(-c4c(Cl)cccc4Cl)c(=O)n(OCCCCN)c3n2)c1 [Compound 41, 8-(4-Aminobutoxy)-6-(2,6-dichlorophenyl)-2-(3-methoxyphenylamino)-pyrido[2,3-d]pyrimidin-7-one] | < 100 nM | < 500 nM | < 1000 nM
COn1c(=O)c(-c2ccccc2)cc2cnc(Nc3cccc(CO)c3)nc21 [Compound 43, 2-(3-Hydroxymethylphenylamino)-8-methoxy-6-phenyl-pyrido[2,3-d]pyrimidin-7-one] | < 100 nM | < 5000 nM | < 10000 nM
COc1ccc(OC)c(-c2cc3cnc(Nc4cccc(CO)c4)nc3n(OC)c2=O)c1 [Compound 44, 6-(2,5-Dimethoxyphenyl)-2-(3-hydroxymethylphenylamino)-8-methoxy-pyrido[2,3-d]pyrimidin-7-one] | < 100 nM | < 5000 nM | > 10000 nM
COn1c(=O)c(-c2c(Cl)cccc2Cl)cc2cnc(Nc3cc(CO)ccc3C)nc21 [Compound 45, 6-(2,6-Dichlorophenyl)-2-((2-methyl-5-hydroxymethylphenyl)-amino)-8-methoxy-pyrido[2,3-d]pyrimidin-7-one] | < 100 nM | < 500 nM | < 10000 nM
COn1c(=O)c(-c2c(Cl)cccc2Cl)cc2cnc(N)nc21 [Compound 46, 2-Amino-6-(2,6-dichlorophenyl)-8-methoxy-pyrido[2,3-d]pyrimidin-7-one] | < 100 nM | < 500 nM | < 10000 nM
COCCNc1ncc2cc(-c3c(Cl)cccc3Cl)c(=O)n(OC)c2n1 [Compound 48, 6-(2,6-Dichlorophenyl)-8-methoxy-2-methoxyethylamino-pyrido[2,3-d]pyrimidin-7-one] | < 100 nM | < 500 nM | > 10000 nM
O=c1c(-c2ccccc2Cl)cc2cnc(Nc3ccccc3)nc2n1OCC1CC1 [Compound 49, 6-(2-Chlorophenyl)-8-cyclopropylmethoxy-2-phenylamino-pyrido[2,3-d]pyrimidin-7-one] | < 100 nM | > 1000 nM | < 10000 nM
COc1ccccc1-c1cc2cnc(Nc3ccc(OCCN(C)C)cc3)nc2n(OC)c1=O [Compound 50, 2-(4-(2-Dimethylaminoethoxy)-6-(2-methoxyphenyl)-phenylamino)-8-methoxy-pyrido[2,3-d]pyrimidin-7-one] | < 1000 nM | > 1000 nM | < 10000 nM
